{
  "source": "patent US20260144769A1",
  "about": "“4-PHENYLBUTYRATE RESTORED GABA UPTAKE AND REDUCED SEIZURES IN SLC6A1 VARIANT-MEDIATED DISORDERS” (Vanderbilt University, priority 2022, published 2026)",
  "origin": "cited, not measured here",
  "conditions": "SLC6A1 mutation mediated disorders; cited from earlier work",
  "data": [
    {"smiles": "CCCC(CCC)C(=O)O", "note": "[Valproic acid]", "values": [
      {"measurement": "cognition", "value": "could not improve cognition"},
      {"measurement": "seizure control", "value": "control seizures"}
    ]}
  ]
}
